From US10960020B2, “Modulation of PCSK9 and LDLR through DRP1 inhibition” (THE BRIGHAM AND WOMEN'S HOSPITAL, INC., priority 2016, dated 2021)
Entries after “also recorded” stand apart in the source; their conditions may differ.

Legend:
[1] = system: PCSK9 secretion in primary human hepatocytes; assay: Secreted PCSK9 ELISA, primary human hepatocytes; format: cell-based; conditions: Mdivi-1 50 μM, 24 hours
Experimental: Pitavastatin and T0901317 were synthesized and provided by Kowa Company, Ltd. (Tokyo, Japan), and treated at a dose of 1 μM in all experiments. DMSO (vehicle; final concentration 0.01%) and Mdivi-1 (>99.85% purity) were purchased from Sigma (St. Louis, Mo.). Mdivi-1 in DMSO vehicle was added at a concentration of 50 μM in all experiments. Mdivi-1 in DMSO vehicle was added to cell culture media in a 50 mL tube, vortexed hard for several minutes and then incubated at 37° C. prior to adding to cells to ensure the compound was fully solubilized.
HepG2 cells were obtained from ATCC (Manassas, Va.), and cultured in EMEM with L-glutamine (ATCC) medium, 1% pen/strep, with and without 10% FBS (Thermo Fisher Scientific, Waltham, Mass.) in 12-well plates (Corning, Durham, N.C.). HepG2 cells were plated at a density of 60-70% prior to treatment to avoid clumping. […] Cell viability was assessed by Trypan Blue exclusion using live/dead cell counting on a Countess™ II LT automated cell counter (Thermo Fisher Scientific).
Mouse serum PCSK9 was measured using the mouse proprotein convertase 9/PCSK9 quantikine ELISA kit (MPC900, R&D Systems, Minneapolis, Minn.), and human liver cell secreted PCSK9 using the human proprotein convertase 9/PCSK9 DuoSet ELISA (DY3888, R&D Systems), both according to manufacturers' protocols.

PCSK9 mRNA = assay: Real time PCR, HepG2 PCSK9 mRNA; format: cell-based, human; conditions: HepG2, Mdivi-1 50 μM, 24 hours
From the text: Human cells and mouse liver was homogenized with TriZolTM (Life Technologies, Grand Island, N.Y.) to isolate RNA. QuantiTectTM Reverse Transcription Kit (Qiagen, Hilden, Germany) was used for reverse transcription on total RNA. cDNA was generated using the Quanta gScriptTM cDNA Synthesis Kit (Bioscience Inc., Gaithersburg, Md.). mRNA levels were quantified on a 7900HT real-time PCR system (Thermo Fisher Scientific) using TaqManTM real-time PCR with the following probes: Hs02758991_g1 (human GAPDH); Mm99999915_g1 (mouse Gapdh); Hs00236329 m1 (human BCL2L1); Hs00247147_m1 (human DRP1); Hs00545399_m1 (human PCSK9); Mm01263610_m1 (mouse Pcsk9); Hs00168352_m1 (human HMGCR); […]); Hs00181192_m1 (human LDLR); Mm00440169_m1 (mouse Ldlr); Hs01088691_m1 (human SREBP1); Mm00550338_m1 (mouse Srebp1); Hs00231674_m1 (human SREBP1a); custom primer (human SREBP1c); Hs01081784_m1 (human SREBP2); Mm01306292_m1 (mouse Srebp2); Hs01005622_m1 (human FASN); […]); Hs00167041_m1 (human HNF1A); Mm00493434_m1 (mouse Hnf1a); Hs00171168 (human APOE); Hs01059118_m1 (human ABCA1); Hs01103582_s1 (human JUN). Mouse SREBP-1c was analyzed by SYBERTM green PCR with the following primers: [NT] All expression levels were normalized to GAPDH using the ΔΔCT method.

LDLR protein = assay: Western blot, HepG2 LDLR protein; format: cell-based, human; conditions: HepG2, 24 hours; Mdivi-1 50 μM, pitavastatin 1 μM, T0901317 1 μM
HMGCR = assay: Western blot, HepG2 HMGCR protein; format: cell-based, human; conditions: HepG2, Mdivi-1 50 μM, 24 hours
p62 = assay: Western blot, HepG2 p62 and p (S349) p62; format: cell-based, human; conditions: HepG2, 24 hours; Mdivi-1 50 μmol/L, MG132 0.3 μmol/L
DRP1 protein = assay: Western blot, HepG2 DRP1 protein; format: cell-based, human; conditions: HepG2, Mdivi-1 50 μM, 24 hours

SMILES: COc1cc(-n2c(S)nc3ccccc3c2=O)c(Cl)cc1Cl [Mdivi-1, 3-(2,4-Dichloro-5-methoxyphenyl)-2,3-dihydro-2-thioxo-4(1H)-quinazolinone]
- PCSK9 secretion by ELISA [1]: reduced
- Cellular PCSK9 mRNA (PCSK9 mRNA): reduced; also recorded: strongly reduced
- HepG2 LDLR protein increase (LDLR protein): 5.8 fold
- HMGCR abundance increase (HMGCR): not
- p62 abundance (p62): strongly increased
- p62 phosphorylation (p62): increased
- DRP1 protein content (DRP1 protein): without altering
